Experimental data reported in paper PMC12648460, “Substitution of CH3 by CH2F in 2‐Methylerythritol Cyclodiphosphate Triggers Potent Inhibition of IspG with Concomitant Fluoride Ion Expulsion” (Chemistry (Weinheim an Der Bergstrasse, Germany), 2025).

What was measured:
Assay type in all cases: biochemical
IspG (GcpE) [1] = target: T1, IspG (GcpE) (Escherichia coli, UniProt P62620); assay: anaerobic NADPH consumption assay of purified IspG with […] MEcPP
T1 construct: active dimeric form

IspG (GcpE) [2] = target: T1, IspG (GcpE); assay: anaerobic NADPH consumption assay ([…] nm), […] min preincubation with reduction system; […]-NMR of fluoride release
IspG (GcpE) [3] = target: T1, IspG (GcpE); assay: anaerobic NADPH consumption assay, preincubation with reduction system

T1 sequence (P61949 2-176): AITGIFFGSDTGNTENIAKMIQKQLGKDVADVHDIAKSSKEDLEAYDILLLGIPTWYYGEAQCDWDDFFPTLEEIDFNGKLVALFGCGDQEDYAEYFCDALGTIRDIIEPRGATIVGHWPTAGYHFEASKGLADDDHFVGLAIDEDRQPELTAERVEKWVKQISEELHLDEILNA
T1 sequence (P28861 2-248, further chain): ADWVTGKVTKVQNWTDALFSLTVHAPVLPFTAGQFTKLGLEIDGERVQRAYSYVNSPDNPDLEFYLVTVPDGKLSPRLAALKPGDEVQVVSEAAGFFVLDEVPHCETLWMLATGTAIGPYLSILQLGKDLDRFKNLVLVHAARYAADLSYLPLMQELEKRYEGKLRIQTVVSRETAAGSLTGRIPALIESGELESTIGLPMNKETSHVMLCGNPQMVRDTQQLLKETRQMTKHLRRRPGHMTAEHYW
T1 sequence (P62620 whole entry): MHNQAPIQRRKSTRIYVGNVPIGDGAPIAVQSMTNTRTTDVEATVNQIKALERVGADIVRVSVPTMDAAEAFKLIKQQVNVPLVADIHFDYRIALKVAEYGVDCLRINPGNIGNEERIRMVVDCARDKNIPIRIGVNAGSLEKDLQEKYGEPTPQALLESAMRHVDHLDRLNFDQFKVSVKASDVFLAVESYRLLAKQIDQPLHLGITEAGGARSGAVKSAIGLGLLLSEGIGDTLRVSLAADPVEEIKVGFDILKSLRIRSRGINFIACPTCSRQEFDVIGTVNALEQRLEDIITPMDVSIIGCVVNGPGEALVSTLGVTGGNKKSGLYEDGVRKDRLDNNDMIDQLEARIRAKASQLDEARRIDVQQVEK

C[C@@]1(CO)OP(=O)(O)OP(=O)(O)OC[C@H]1O [compound 1, 2-C-methyl-D-erythritol 2,4-cyclodiphosphate]
anaerobic NADPH consumption assay of purified IspG with 250 μM MEcPP (IspG (GcpE) [1]): ~ 200 nmol min−1 mg−1

O=P1(O)OC[C@@H](O)[C@@](CO)(CF)OP(=O)(O)O1 [compound 8, monofluoromethyl-D-erythritol cyclodiphosphate]
IC50 (IspG (GcpE) [2]): 10.4 ± 1 µM

C=C[C@@]1(CO)OP(=O)(O)OP(=O)(O)OC[C@H]1O [VEcPP, 2-C-vinyl-D-erythritol cyclodiphosphate]
IC50 (IspG (GcpE) [3]): 19.5 ± 1.3 µM
